Assay results: publication PMC9490060, “Synthesis and evaluation of anticancer activity of quillaic acid derivatives: A cell cycle arrest and apoptosis inducer through NF-κB and MAPK pathways” (Frontiers in Chemistry, 2022)

Columns and labels:
JNK = test: Western blot, MAPK signaling pathway: JNK; type: cell-based, human; details: HCT116, 10 μM, 24 h
Description: (§1) Extracellular signal-regulated kinases are the most closely related MAPK. MAPK, a family of serine/threonine protein kinases, is also an important transmitter of signaling from the cell surface to the nucleus, and it is involved in the regulation of many physiological processes, including apoptosis ([Bian et al., 2021]). The MAPK pathway has been implicated in regulating tumor angiogenesis, proliferation, metastasis and invasion ([Ko et al., 2017]). MAPK family is mainly composed of ERK, p38 and JNK subfamily.
(§2) FIGURE 9 Effect of compound E on […] in HCT116 cells. Cells were pretreated with the various concentrations of compound E (2.5, 5 and 10 μM) for 24 h. The expression of phospho-ERK, ERK, phospho-JNK, JNK, phospho-p38, p38 were analyzed by Western blot. ***p < 0.001, **p < 0.01, *p < 0.05 vs. control group. The error bars represent the mean ± SD for three independent experiments.
(§3) HCT116 cells were cultured with different concentrations of compound E for 24 h. Then, the floating cells were collected and washed twice with ice-cold PBS. Add cold RIPA buffer. After the cells were lysed on ice for 20 min, the lysate was centrifuged at 12,000 rpm for 15 min at 4°C. The BCA method determines the protein concentration. […] The protein is detected by electrochemiluminescence (Bio-Rad, CA, United State).

[1] = system: SW620 (human colorectal cancer cell line); test: MTT anti-proliferative assay, SW620; type: cell-based; details: means ± SD, n = 3
NF-κB p65 = test: Western blot, NF-κB signaling pathway: NF-κB p65; type: cell-based, human; details: HCT116, 2.5, 5 and 10 μM, 24 h
Description: The NF-κB pathway plays an important role in a variety of cellular functions, including cell growth, apoptosis, and tumorigenesis ([Hwang et al., 2012]). Interfering with NF-κB signaling can inhibit tumor cell proliferation and metastasis ([Yenmis et al., 2021]). Therefore, NF-κB inhibitors are considered as potential anticancer drugs ([Wang et al., 2017]).
FIGURE 8 Effect of compound E on NF-κB signaling pathway in HCT116 cells. Cells were pretreated with the various concentrations of compound E (2.5, 5 and 10 μM) for 24 h. The expression of phospho-NF-κB p65, NF-κB p65, phospho-IκB, IκB were analyzed by Western blot. ***p < 0.001, **p < 0.01, *p < 0.05 vs. control group. The error bars represent the mean ± SD for three independent experiments.
as §3, with “concentration. Separated by SDS/PAGE electrophoresis and transferred to a nitrocellulose filter membrane for Western blot analysis. The membrane was blocked with PBS containing 5% skim milk at room temperature for 2 h.” for “concentration.”

HCT116 cells = test: Cell cycle analysis by flow cytometry; type: cell-based, human; details: HCT116, 30 μM, 24 h; control 53.9
Experimental: Inoculate HCT116 cells in a 6-well plate (5.0 × 10^5 cells per well) and incubate at 37°C for 24 h. The exponentially growing cells were then incubated with compound E at 10 and 30 μM. After 24 h, untreated cells (control) or cells treated with compound E were centrifuged at 1,000 rpm for 15 min, and then fixed in 70% ethanol at […] for at least 24 h. The cells were then resuspended in phosphate buffered saline (PBS) containing 0.1 mg/ml RNase A and 5 mg/ml PI. The DNA content of cells used for cell cycle distribution analysis was measured by flow cytometry, and analyzed using FACSalibur flow cytometer and Cell Quest software (Becton-Dickinson, Franklin Lakes, NJ, United States).

[2] = system: BEL7402 (human hepatocellular carcinoma cell line); test: MTT anti-proliferative assay, BEL7402; type: cell-based; details: means ± SD, n = 3
How it was run: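 Cells seeded at 1 × 10^4–1.2 × 10^4 per well were allowed to adhere 24 h, then exposed 48 h at 37 °C, 5% CO2 to compound at 1.25, 2.5, 5 and 10 μM (DMSO ≤0.1%). MCF-7 and HepG2 were grown in DMEM, HCT116 and BEL7402 in RPMI 1640, each with 10% FBS. MTT (final 2 mg/ml) was added for 4 h; formazan was dissolved in DMSO and read at 492 nm.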

p38 = test: Western blot, MAPK signaling pathway: p38; type: cell-based, human; details: HCT116, 10 μM, 24 h
Description: as §1, §2, §3

CC1(C)CC[C@]2(C(=O)OCCn3nnnc3-c3ccccc3)[C@H](O)C[C@]3(C)C(=CC[C@@H]4[C@@]5(C)CC[C@H](O)[C@@](C)(C=O)[C@@H]5CC[C@]43C)[C@@H]2C1 [Compound E, 2-(5-phenyl-1H-tetrazol-1-yl)ethyl (4aR,5R,6aS,6bR,8aR,9S,10S,12aR,12bR,14bS)-9-formyl-5,10-dihydroxy-2,2,6a,6b,9,12a-hexamethyl-1,3,4,5,6,6a,6b,7,8,8a,9,10,11,12,12a,12b,13,14b-octadecahydropicene-4a (2H)-carboxylate]
phosphorylation level of JNK (JNK): down-regulated | IC50 values SW620 ([1]; 48 h incubation): strong activity | IC50 ([1]; Homo sapiens, SW-620, 48 h incubation): 4.69 ± 1.1 µM | effect on NF-κB p65 (NF-κB p65): no inhibitory effect | %G1 (HCT116 cells): 81.2% | IC50 values BEL7402 ([2]; 48 h incubation): strong activity | IC50 ([2]; Homo sapiens, Bel-7402, 48 h incubation): 6.89 ± 1.69 µM | phosphorylation level of p38 (p38): down-regulated
